Data set [1] in a line: Toxicity test, 3H-thymidine incorporation (total DNA synthesis, cell growth). The data set is classed as cell-based. The following applies: cells in growth phase (cell line not given); 48 hours treatment, 6 hours 3H-thymidine pulse; highest concentration evaluated 100 μM; read-out: Toxic Conc. (TC50) Cell Growth. The method, then: Cells in growth phase were treated with serial concentrations of compound for 48 hours and pulse labeled with 3H-thymidine for 6 hours. The cells were then harvested to measure total DNA synthesis in the presence or absence of the compound (Kucera et al., Antiviral Chemistry and Chemotherapy, 9: i57-i65 (1998)).
TC50 determinations were calculated by the method of Chou et al. Elsvier: Amsterdam, 1985, as described in Piantadosi C. et al., Journal of Medicinal Chemistry, 34: 1408-1414 (1991). The TC50 for KPC-15 and KPC-11 were unable to be determined since at the highest concentration evaluated (100 μM), 50% toxicity was not observed. Thus, KPC-15 and KPC-11, lacked significant toxicity in vitro with the TC50>100 μM.

The subject of a further data set is RSV (Long strain). The data set can be described thus: RSV plaque assay with Hep-2 cell monolayers. The data set is classed as cell-based. As to conditions: for EC50: human respiratory syncytial virus, 144 h, Hep-2 cell monolayers, RSV Long strain, 6 days of incubation, 0.4-50 μM in triplicate, read-out: Effective Conc. (EC50) RSV Plaque Count. Here is the method:
The ability of the active compounds to inhibit the growth of RSV was determined using a standard plaque assay with Hep-2 cell monolayers. The cell monolayers were infected with RSV (Long strain obtained from the American Tissue Culture Catalog, Cat# VR-26). After one hour of virus attachment, the cells were overlaid with medium containing methyl cellulose with or without serial concentrations of compound (0.4-50 μM). Each concentration was tested in triplicate. After 6 days of incubation, the overlay medium was aspirated and the cells fixed with absolute ethanol and stained with crystal violet to visualize RSV plaques and cell cytotoxicity using a 4× dissecting microscope. To determine the percent inhibition of RSV plaque formation, the mean number of RSV plaques in the presence of compound was divided by the number of RSV plaques in the control without added compounds. The quotient was subtracted from 1 and then multiplied by 100% to establish the % inhibition.

One may read the EC50 as the concentration needed to bring the measured effect to its halfway point. For the molecule `CCCCCCCCCC(=O)NCC(COP(=O)([O-])OCC[N+](C)(C)C)OCC` (centres unmarked) [KPC-11, decylamido-2-ethoxypropylphosphocholine], the CC50 at 48 h in data set [1] is over 100 µM. Besides, in the data set with RSV (Long strain), the “SI (Selectivity Index: TC50 Cell Growth divided by EC50 Plaque Inhibition)” value is over 28, the “in vitro activity against RSV (in words)” value is listed as “potent in vitro activity against RSV” and the EC50 is 3.5 µM.

For `CCCCCCCCCCCC(=O)NCC(COP(=O)([O-])OCC[N+](C)(C)C)OCC` (centres unmarked) [KPC-15, 3-dodecylamido-2-ethoxypropylphosphocholine], the CC50 at 48 h in data set [1] is over 100 µM. Besides, in the data set with RSV (Long strain), the “SI (Selectivity Index: TC50 Cell Growth divided by EC50 Plaque Inhibition)” value is over 42, the “in vitro activity against RSV (in words)” value is on record as “potent in vitro activity against RSV” and the EC50 turned out to be 2.4 µM.
